Test results: patent US10993987B2 (Sublimity Therapeutics Limited, priority 2014, dated 2021)

Assays:
[1] = Example 11 emulsion stability: time point when crystallisation was observed (polarised light microscopy); assay type: physicochemical; conditions: for emulsion stability compared to sodium dodecyl sulfate (SDS): as aqueous phase surfactant of the cyclosporin emulsion
Protocol: Emulsions were prepared by mixing an oil phase and an aqueous phase, as described in Example 1. The oil phase was consistent for all emulsions of this example. The emulsion aqueous phase mixed was one of three aqueous mixtures. The three aqueous phases differed in the amount of surfactant, 0.7%, 1.3% and 2.5%, and water.
The emulsion was prepared by mixing the oil phase and aqueous phase in a oil:aqueous phase ratio of 1:5. The experiments were performed in triplicate, N=3. In order to replicate current manufacturing conditions as much as possible the following procedure was carried out: • Identical size beakers were used to ensure minimal variation between experiments • Identical submersible magnetic stirrers were placed in each beaker to keep the emulsions under constant magnetic stirring, and the same rpm stir rate used for each • Hot plates were used to maintain a constant emulsion temperature of 65° C. • Emulsions were kept covered with aluminium foil during the process
Sampling of the emulsion was carried out at various time points using disposable pipettes to avoid cross contamination.
(§1) Samples were withdrawn from each emulsion at half hour time intervals starting at time zero (t0) using a disposable pipette. Drops of emulsion were placed on a glass slide, pre heated on a hot plate. The sample was covered with a cover slip and a small amount of pressure applied to form a thin film of emulsion. The samples were allowed to solidify to room temperature before being viewed at ×50 and ×100 objective lens under polarised light to check for the presence of crystals. Results were recorded as optical photomicrographs with three images taken of each emulsion at each time point. Images documenting crystal growth and size with respect to time within the sample emulsion as well as background oil droplet size were collected.

[2] = Example 11 emulsion droplet size by photomicrographs; assay type: physicochemical
Source text: as §1
Photomicrographs of the emulsions enabled the investigation of the droplet size as well as crystal formation. Smaller, more uniform droplet size was preferred.

emulsion stability among tested surfactants ([1]; each concentration (0.7%, 1.3%, 2.5% in aqueous phase)) | Structure (SMILES) | emulsion stability compared to sodium dodecyl sulfate (SDS) [1] | emulsion droplet characteristics (smaller, more uniform droplet size preferred) [2]
best stability for each concentration | CCCCCCCCCCCCCCCCCCOS(=O)(=O)[O-].[Na+] [Sodium n-Octadecyl Sulfate] | comparable to that of sodium dodecyl sulfate | preferred droplet characteristics were observed
 | CCCCCCCCOS(=O)(=O)[O-].[Na+] [Sodium n-Octyl Sulfate] | comparable to that of sodium dodecyl sulfate | preferred droplet characteristics were observed
